# Where “and” joins values, the source holds several entries; their conditions need not be identical. Equal values may be shown once.
# Molecular target: T1, PfCRT variant E208A (Plasmodium falciparum, UniProt Q9N623, A220S/E208A/I356T/K76T/M74I/N326S/N75E/Q271E/R371I)
# T1 sequence (Q9N623 1-424 M74I/N75E/K76T/E208A/A220S/Q271E/N326S/I356T/R371I): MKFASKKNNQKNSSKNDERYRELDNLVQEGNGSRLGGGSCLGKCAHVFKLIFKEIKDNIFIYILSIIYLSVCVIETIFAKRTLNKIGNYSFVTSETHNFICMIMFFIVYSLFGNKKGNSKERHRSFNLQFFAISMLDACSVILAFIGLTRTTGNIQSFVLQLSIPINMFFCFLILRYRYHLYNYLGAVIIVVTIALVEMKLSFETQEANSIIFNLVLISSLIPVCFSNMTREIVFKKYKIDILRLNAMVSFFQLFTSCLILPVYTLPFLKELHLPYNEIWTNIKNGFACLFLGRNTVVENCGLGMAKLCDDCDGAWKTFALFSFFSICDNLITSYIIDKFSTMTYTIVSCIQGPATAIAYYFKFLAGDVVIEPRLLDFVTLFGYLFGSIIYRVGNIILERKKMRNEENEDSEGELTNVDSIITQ
# Experiment: CQ uptake assay, oocytes expressing E208A
# Type: cell-based
# Protocol: Site-directed mutagenesis of PfCRT^Dd2 was performed as described using the megaprimer method with overlap extension[21],[54]. The primer pairs used are listed in Supplementary Table 6. Please note that a codon-optimized and oocyte-adapted version of PfCRT^Dd2 was used[22] (Supplementary Fig. 16). The resulting DNA fragment was cloned into the SP64T expression vector and verified by sequencing.
# Oocytes were obtained as described previously. Briefly, adult (>2 years old) female X. laevis frogs (NASCO) were anesthetized in a cooled solution of ethyl 3-amino benzoate methanesulfonate (0.1%, w/v), followed by a surgical removal of parts of the ovary. The ovary lobes were carefully dissected and small pieces of oocytes were incubated in Ca^2+-free ND96 buffer (96 mM NaCl, 2 mM KCl, 1 mM MgCl2 buffered with 5 mM HEPES/NaOH, pH 7.5) supplemented with collagenase D (0.1%, w/v; Roche), BSA (0.5%, w/v), and 9 mm Na2HPO4 at 18 °C for 14-16 h while gentle shaking. After incubation, the oocytes were carefully washed several times with ND96 buffer (96 mM NaCl, 2 mM KCl, 1.8 mM CaCl2, 1 mM MgCl2 buffered with 5 mM HEPES/NaOH, pH 7.5) supplemented with 100 mg l^−1 gentamycin). Defolliculated and healthy-looking stage V-VI oocytes were manually selected for RNA microinjection. The RNA was generated as following: The codon-optimized sequences of PfCRT variants were cloned into the pSP64T expression vector. After vector linearization using the restriction endonucleases BamHI or SalI (New England Biolabs), transcription was performed using the in vitro SP6 mMessage mMachine Kit (Ambion)[34]. The obtained RNA was kept at −80 °C and diluted with nuclease-free water to a concentration of 0.6 μg μl^−1. Precision-bore glass capillary tubes (3.5-inch glass capillaries; Drummond Scientific Co.) were pulled on a vertical puller (P-87 Flaming/Brown micropipette puller, Sutter Instrument Co.), graduated, and placed on a microinjector (Nanoject II Auto-Nanoliter Injector, Drummond Scientific Co.). 50 nl of nuclease-free water alone (control oocytes) or 50 nl of 0.6 μg μl^−1 RNA were injected under stereomicroscopic control. Injected oocytes were incubated for 46–72 h at 18 °C with twice-daily buffer changes before usage in experiments.
# Drug uptake assays were performed as described previously[21],[22],[24],[34]. […] The direction of radio-labeled drug transport is here from the mostly acidic extracellular solution (pH 4.5 or 6.0, as indicated) into the oocyte cytosol (pH ∼ 7.2), which corresponds to the efflux of drug from the acidic digestive vacuole (pH 5.2) into the parasite cytoplasm (pH 7.2). The topology of PfCRT in the oolemma is such that both the N- and C-terminus face the extracellular milieu[3],[22]. In the parasite, the N- and C-terminus face the lumen of the digestive vacuole. […] For determination of the amount of drug uptake for each oocyte, the reaction medium was removed and the oocytes were washed three times with 2 ml of ice-cold ND96 buffer. Each oocyte was individually transferred to a scintillation vial containing 5% sodium dodecyl sulfate (200 μl) for lysis. […] Oocytes that were injected with water instead of RNA were analyzed in parallel, representing the uptake of a drug by diffusion and/or endogenous permeation pathways. […] The specific PfCRT-mediated uptake was determined by subtracting the corresponding background value measured in water-injected oocytes from that of PfCRT-expressing oocytes. […]
structure (smiles),measurement,setting,value
"CCN(CC)CCCC(C)Nc1ccnc2cc(Cl)ccc12 (centres unmarked) [CQ, chloroquine]",Activity at pH 6.0,"E208A, 50 µM CQ, 1 h, mean ± SEM",5.43 ± 0.38 pmol h-1 oocyte-1
same,R-value,"E208A, CQ transport at pH 4.5 / pH 6.0",0.48 and 0.48 ± 0.05
same,E208A transport activity pH 4.5,"pH 4.5, single replicates, Fig 1d left",3.17 pmol oocyte-1 h-1 and 3.09 pmol oocyte-1 h-1 and 1.68 pmol oocyte-1 h-1
same,E208A R-value,"pH 4.5 vs pH 6.0, Fig 1d left",0.52 and 0.55 and 0.37
same,E208A transport activity pH 6.0,"pH 6.0, single replicates, Fig 1d left",6.15 pmol oocyte-1 h-1 and 5.57 pmol oocyte-1 h-1 and 4.57 pmol oocyte-1 h-1
